# Experimental data: US20210364534A1, “METHODS OF USING HISTATIN FOR DIAGNOSING AND TREATING A DRY EYE DISEASE OR OTHER OCULAR DISEASES” (THE BOARD OF TRUSTEES OF THE UNIVERSITY OF ILLINOIS, priority 2018, published 2021)
# Marks after values point to notes of the source that are not given here. Non-standard residues stand in square brackets, D forms with d. No end group written: not given here. pS = N[C@@H](COP(=O)(O)O)C(=O)O
# Columns and labels:
# TNFα = TNFα expression induced by BAK application to HCE cells; type: cell-based, Human; conditions: BAK-treated HCE cells, histatin co-treatment
# IL6 = IL6 expression induced by BAK application to HCE cells; type: cell-based, Human; conditions: BAK-treated HCE cells, histatin co-treatment
# [1] = tested on: Human corneal epithelial (HCE) cells; experiment: WST-1 cell viability of HCE cells exposed to benzalkonium chloride (BAK); type: cell-based; conditions: BAK-treated HCE cells co-treated with histatin; FIG. 5
# Protocol: Experiments were performed in triplicate. *<0.05, **<0.01. Bar represents SEM.
# To determine whether histatins could improve symptoms of dry eye disease, cell viability assays were carried out in the presence of the toxic preservative benzalkonium chloride (BAK)(Yang, et al. (2017) Int. J. Mol. Sci. 18(3):509). Human corneal epithelial (HCE) cells were cultivated under standard conditions and viability was assessed using WST-1 reagent, a tetrazolium salt that is reduced to a red formazan dye by the mitochondrial dehydrogenases of metabolically active cells (Bartok, et al. (2015) EXCLI J. 14:123-132).
# IL8 = IL8 expression induced by BAK application to HCE cells; type: cell-based, Human; conditions: BAK-treated HCE cells, histatin co-treatment
# [2] = tested on: dry eye disease murine model (BAK exposure); experiment: Murine model of dry eye disease (benzalkonium chloride exposure), NEI score; type: in vivo; conditions: twice a day topical 80 μM, by 7 days, versus vehicle control (BSS); FIG. 6
# Protocol: Results are based upon the National Eye Institute/Industry (NEI) grading scale (Lemp (1995) CLAO J. 21:221-232) in animals treated with H5 or Balanced Salt Solution (BSS). All experiments were performed in triplicate. *<0.05, **<0.01. Bar represents SEM.
# human corneal epithelia = conditions: Shah, et al. (2017) PLoS One 12(5):e0178030; cited from earlier work
Substance,Decrease in cytokine expression TNFα protein (TNFα),Decrease in cytokine expression IL6 mRNA (IL6),Decrease in cytokine expression IL6 protein (IL6),HCE viability (WST-1) [1],Decrease in cytokine expression IL8 mRNA (IL8),standardized dry eye disease score (NEI score) [2],migration of human corneal epithelia (human corneal epithelia)
Histatin 5 (DSHAKRHHGYKRKFHEKHHSHRGY) [Histatin H5],32%**,45%*,45%,improved,46%*,reduced standardized dry eye disease score (NEI score) in a statistically significant manner,
Histatin-1 (D[pS]HEKRHHGYRRKFHEKHHSHREFPFYGDYGSNYLYDN) [Histatin H1],12%,82%**,48%*,improved,86%**,,promote migration
